The assay deals with PC-3-KQ cells. As to the kind of experiment: 3D spheroid invasion assay and screening of FDA-approved drugs. It is filed as cell-based, human. Particulars: compared to vehicle control; for activity at 0.01 µM / activity at 0.1 µM / activity at 1 µM / activity at 10 µM: Homo sapiens, 72 h, read-out: Invasion rates (%) of each drug’s multiple concentrations. The procedure:
The invasion assay was performed as previously described. […] The plates were then centrifuged at 320 g for 4 min to cluster cells in the bottom of wells and incubated for 3 days. On the fourth day, 40 μL medium was removed from each well, 40 μL of the matrigel-medium mixture was added to each well, and cells were cultured for another 3 days. […] At the end of the incubation, images were taken using a phase contrast microscope (Eclipse Ti2, Nikon, Tokyo, Japan) with 10× object lenses, and the total area of cells and the core sphere area of cells (Fig. 1a) were measured using the Image J software. The invading area was calculated using the following formula: invasion area = total area of cells – core sphere area.
For drug screening, drugs were added to the matrigel-medium mixture when replacing the culture medium on day 4. For the initial round of screening, a final concentration of 10 μM was used for all drugs. Multiple drug concentrations were used for the second round of screening, including 0, 0.001, 0.01, 0.1, 1, and 10 μM. Duplicate wells were repeated for each concentration.

[1] abbreviates: 0.01 μM (first column so headed), secondary screening of 87 hit compounds (Table S1).
The mark [2] stands for this setting: 0.01 μM (first column so headed), third screening of 25 hit compounds (Table S2).
Where [3] appears, read: 0.01 μM (second column so headed), secondary screening of 87 hit compounds (Table S1).
Setting [4] is: 0.01 μM (second column so headed), third screening of 25 hit compounds (Table S2).
[5] abbreviates: 0.1 μM, secondary screening of 87 hit compounds (Table S1).
Where [6] appears, read: 0.1 μM, third screening of 25 hit compounds (Table S2).
The mark [7] stands for this setting: 1 μM, secondary screening of 87 hit compounds (Table S1).
Setting [8] is: 1 μM, third screening of 25 hit compounds (Table S2).
Setting [9] is: 10 μM, secondary screening of 87 hit compounds (Table S1).
The mark [10] stands for this setting: 10 μM, third screening of 25 hit compounds (Table S2).

Where two headings read alike, the source gives them in different places.

Take `CC(=O)OC[C@H]1O[C@@H]([S-])[C@H](OC(C)=O)[C@@H](OC(C)=O)[C@@H]1OC(C)=O.CCP(CC)CC.[Au+]` [Auranofin]: the “Invasion rates (%) of each drug’s multiple concentrations (μM)” value (“Invasion rates (%)” below) is 98.81% under setting [1]; 93.68% under setting [2]; 100.66% under setting [3]; 97.35% under setting [4]; 95.62% under setting [5]; 88.21% under setting [6]. The “Invasion rates (%)” value is given as 2.03% under setting [7], 2.34% under setting [8], 0.38% under setting [9] and 0.76% under setting [10].
Regarding `Cn1cnc([N+](=O)[O-])c1Sc1ncnc2nc[nH]c12` [Azathioprine], the activity at 0.01 µM runs as follows: under setting [1], 85.2%; under setting [3], 91.6%. Also, the activity at 0.1 µM under setting [5] stood at 80%. Under setting [7], the activity at 1 µM came to 68.3%. For the same molecule, the activity at 10 µM under setting [9] is 33.5%.
For `O=C(Cn1ccnc1[N+](=O)[O-])NCc1ccccc1` [Benznidazol], in that order: 92.5%, 94.3%, 88.1%, 90.9% and 4.48%.
Turning to `CC(C)C[C@H](NC(=O)[C@H](Cc1ccccc1)NC(=O)c1cnccn1)B(O)O` [Bortezomib], the activity at 0.01 µM stood at 29.5% under setting [1], 84.3% under setting [2], 75.3% under setting [3] and 92.8% under setting [4]. For the same molecule, the activity at 0.1 µM worked out at 5.79% under setting [5] and 66.1% under setting [6]. Moreover, the activity at 1 µM turned out to be 4.37% under setting [7] and 35.3% under setting [8]. Besides, the activity at 10 µM came to 0.98% under setting [9] and 9.72% under setting [10].
Consider `COc1cc(Nc2c(C#N)cnc3cc(OCCCN4CCN(C)CC4)c(OC)cc23)c(Cl)cc1Cl` [Bosutinib], for which the activity at 0.01 µM by setting is: under setting [1], 90.7%; under setting [3], 97.2%. Besides, the activity at 0.1 µM under setting [5] came out at 87.3%. Under setting [7], the activity at 1 µM is 69.9%. Besides, under setting [9], the activity at 10 µM is 10.1%.
Regarding `Cc1cc(Nc2ncc(Cl)c(Nc3ccccc3S(=O)(=O)C(C)C)n2)c(OC(C)C)cc1C1CCNCC1.Cl.Cl` [Ceritinib dihydrochloride], the “Invasion rates (%)” value is, setting by setting: under setting [1], 88.46%; under setting [3], 86.07%; under setting [5], 92.06%; under setting [7], 86.82%; under setting [9], 39.86%.
Regarding `CN(C)[C@@H]1C(=O)C(C(N)=O)=C(O)[C@@]2(O)C(=O)C3=C(O)c4c(O)ccc(Cl)c4[C@@](C)(O)[C@H]3C[C@@H]12.Cl` [Chlortetracycline (hydrochloride)], the “Invasion rates (%)” value is on record as 99.62% under setting [1]; 99.02% under setting [3]; 97.93% under setting [5]; 95.42% under setting [7]; 45.01% under setting [9].
On to `COc1cc2ncnc(Nc3ccc(F)c(Cl)c3)c2cc1NC(=O)/C=C/CN1CCCCC1` [Dacomitinib], for which the activity at 0.01 µM reads like this: under setting [1], 78.1%; under setting [2], 98.9%; under setting [3], 77.8%; under setting [4], 102%. For the same molecule, the activity at 0.1 µM by setting is: under setting [5], 73.1%; under setting [6], 98.6%. For the same molecule, the activity at 1 µM under setting [7] was 44.7% and the activity at 1 µM under setting [8] turned out to be 90.7%. The activity at 10 µM is, setting by setting: under setting [9], 5.75%; under setting [10], 53.9%.
Regarding `CN1C[C@@H]2C[C@H]1CN2c1cc2c(cc1F)c(=O)c(C(=O)O)cn2C1CC1.CS(=O)(=O)O` [Danofloxacin (mesylate)], the “Invasion rates (%)” value by setting is: under setting [1], 94.09%; under setting [2], 93.23%; under setting [3], 90.56%; under setting [4], 98.11%; under setting [5], 86.22%; under setting [6], 87.17%. The “Invasion rates (%)” value runs as follows: under setting [7], 14.57%; under setting [8], 77.40%; under setting [9], 3.38%; under setting [10], 2.06%.
For the molecule `O.O.O.O.O.O.O.O=C1N=C([O-])CN1/N=C/c1ccc(-c2ccc([N+](=O)[O-])cc2)o1.O=C1N=C([O-])CN1/N=C/c1ccc(-c2ccc([N+](=O)[O-])cc2)o1.[Na+].[Na+]` [Dantrolene (sodium hemiheptahydrate)], the “Invasion rates (%)” value by setting is: under setting [1], 102.88%; under setting [3], 101.64%; under setting [5], 90.54%; under setting [7], 82.27%; under setting [9], 29.15%.
Consider `Cc1nc(Nc2ncc(C(=O)Nc3c(C)cccc3Cl)s2)cc(N2CCN(CCO)CC2)n1.Cl` [Dasatinib (hydrochloride)], for which the “Invasion rates (%)” value is, setting by setting: under setting [1], 54.32%; under setting [2], 99.47%; under setting [3], 60.68%; under setting [4], 101.09%; under setting [5], 53.75%; under setting [6], 92.00%. For the same molecule, the “Invasion rates (%)” value came to 49.82% under setting [7], 87.73% under setting [8], 38.63% under setting [9] and 56.83% under setting [10].
As for `Cc1nc(Nc2ncc(C(=O)Nc3c(C)cccc3Cl)s2)cc(N2CCN(CCO)CC2)n1` [Dasatinib], the activity at 0.01 µM reads like this: under setting [1], 46.2%; under setting [2], 95.1%; under setting [3], 49.7%; under setting [4], 97.7%. Also, the activity at 0.1 µM amounted to 37.7% under setting [5] and 83.4% under setting [6]. In addition, the activity at 1 µM runs as follows: under setting [7], 37.1%; under setting [8], 71.7%. In addition, the activity at 10 µM reads like this: under setting [9], 15.1%; under setting [10], 0.9%.
As for `COc1cccc2c1C(=O)c1c(O)c3c(c(O)c1C2=O)C[C@@](O)(C(C)=O)C[C@@H]3O[C@H]1C[C@H](N)[C@H](O)[C@H](C)O1.Cl` [Daunorubicin (Hydrochloride)], the “Invasion rates (%)” value runs as follows: under setting [1], 95.45%; under setting [3], 98.71%; under setting [5], 93.45%; under setting [7], 64.89%; under setting [9], 2.25%.

Source of the values: article PMC9945734 (BMC Medicine, 2023).
